{"source": "patent US11358931B2", "about": "“Selective androgen receptor modulators (SARMs) and uses thereof” (priority 2007, dated 2022)", "key": {"[1]": {"assay": "In vitro genotoxicity assays", "excerpt": "Compounds disclosed herein can be evaluated for efficacy and toxicity using known methods. For example, the toxicology of a particular compound, or of a subset of the compounds, sharing certain chemical moieties, may be established by determining in vitro toxicity towards a cell line, such as a bacterial or mammalian, including human, cell line. The results of such studies are often predictive of toxicity in animals, such as mammals, or more specifically, humans. Exemplary assays include bacterial reverse mutation assays (e.g., see Ames et al., Mutation Research 31: 347-364 (1975); Green et al., Mutation Research 38: 3-32 (1976); and Maron et al., Mutation Research 113: 173-215 (1983), cytological methods for detecting chemical mutagens (Evans, Chemical Mutagens, Principles and Methods for their Detection, Vol. 4 (Plenum Press, New York, N.Y. (1976))), chromosomal aberration assays (Galloway et al., Mutation Research 312(3): 241-261 (1994)), genotoxicity assays (Federal Register 61: 18198-18202 (1996) and Federal Register 62: 16026-16030 (1997)) and cytogenetic assays (Preston et al., Mutation Research 87: 143-188 (1981))."}, "[2]": {"assay": "Metabolic stability in liver microsomes", "assay_type": "in vitro ADME", "settings": "rat liver microsomes, 37° C., pH 7.4, average of 2 experiments; read-out: half-life for degradation", "method": "Liver microsomes are subcellular fractions that contain drug-metabolizing enzymes, such as cytochrome P450, flavin monooxygenases and UDP glucuronyl transferases. […] Rat liver microsomes are a commonly used animal model for determination of drug metabolism (e.g., see Shayeganpour et al., Drug Metab Dispos 34 (1): 43-50 (2006)).\nThe metabolism of Compound 102 was evaluated in rat liver microsomes. The metabolism was initiated by adding 25 μL of cofactor (100 mM of glucose 6-phosphate, 20 mM of NADP, […], and 63 mM of UDPGA) to wells containing 50 μL of 5 mg/mL of rat liver microsomes and 425 μL of 0.59 mM of Compound 102 made in 100 mM phosphate buffer (pH 7.4) at 37° C. At 0, 5, 10 and 20 minutes, a 60 μL aliquot of the sample was withdrawn. The unmetabolized test substance remaining in the sample was determined using HPLC and mass spectrometry and the half-life for degradation of the compound was calculated in minutes using curve fitting."}, "[3]": {"assay": "Pharmacokinetics in Sprague Dawley rats, repeat oral administration for 15 days", "assay_type": "in vivo, rat", "settings": "for AUC(0-inf) / Cmax / Tmax / half-life / AUC: Sprague-Dawley, rat, plasma, po, SD rats; for AUC: read-out: AUC24", "method": "The pharmacokinetics of Compound 102 following repeat oral administration for 15 days was evaluated in Sprague-Dawley rats. A total of 30 rats (15 males and 15 females) were divided into three dose groups (5 males/5 females). Compound 102 was suspended in a vehicle of 2% […]: 0.5% carboxymethyl cellulose (high viscosity) (50:50, v/v) at concentrations of 0.25, 0.75 and 2.5 mg/mL and animals were dosed via oral gavage at 1, 3 and 10 mg/kg once daily for 15 days. Tap water and a diet of rodent chow were provided to the animals ad libitum.\nBlood samples were collected on Day 1 and Day 15. Approximately 0.25 mL of blood was collected from each animal via jugular cannula on Day 1 and from tail vein on Day 15. Blood samples were taken 1, 2, 4, 8, 12 and 24 hr postdose. Each blood sample was collected into tubes containing lithium heparin and kept on wet ice pending centrifugation (max 2 hrs). Samples were centrifuged under refrigeration (2°−8° C. at 3000 g) for 10 minutes. Plasma was transferred into a pre-labeled tube (approximately 125 μL) placed on dry ice and stored frozen at −70° C. until analysis.\n50 μL of plasma was extracted with 250 μL of acetonitrile and the plasma concentration of Compound 102 was determined by an LC-MS/MS method. The plasma concentration time data were analyzed by a non-compartmental pharmacokinetic method using WinNonlin. The results for pharmacokinetics (Mean±SD, n=5) is shown in Table 3 (Day 1) and Table 4 (Day 15)."}, "[4]": {"settings": "female, 1 mg/kg, oral gavage once daily, Day 15, 1 mg/kg, Female"}, "[5]": {"settings": "female, 1 mg/kg, oral gavage, Day 1, 1 mg/kg, Female"}, "[6]": {"settings": "female, 3 mg/kg, oral gavage once daily, Day 15, 3 mg/kg, Female, n = 3"}, "[7]": {"settings": "female, 3 mg/kg, oral gavage, Day 1, 3 mg/kg, Female"}, "[8]": {"settings": "female, 10 mg/kg, oral gavage once daily, Day 15, 10 mg/kg, Female, n = 4"}, "[9]": {"settings": "female, 10 mg/kg, oral gavage, Day 1, 10 mg/kg, Female"}, "[10]": {"settings": "male, 1 mg/kg, oral gavage once daily, Day 15, 1 mg/kg, Male, n = 4"}, "[11]": {"settings": "male, 1 mg/kg, oral gavage, Day 1, 1 mg/kg, Male"}, "[12]": {"settings": "male, 3 mg/kg, oral gavage once daily, Day 15, 3 mg/kg, Male"}, "[13]": {"settings": "male, 3 mg/kg, oral gavage, Day 1, 3 mg/kg, Male"}, "[14]": {"settings": "male, 10 mg/kg, oral gavage once daily, Day 15, 10 mg/kg, Male, n = 2"}, "[15]": {"settings": "male, 10 mg/kg, oral gavage, Day 1, 10 mg/kg, Male"}}, "note": "Where two headings read alike, the source gives them in different places.", "data": [{"smiles": "N#Cc1ccc(N2CCC[C@@H]2[C@@H](O)C(F)(F)F)cc1C(F)(F)F", "note": "[Compound 102, R,R-4-(2-(1-Hydroxyl-2,2,2-trifluoroethyl)-pyrrolidinyl)-2-trifluoromethyl-benzonitrile]", "values": [{"measurement": "genotoxicity", "setting": "[1]", "value": "negative"}, {"measurement": "half-life at 0.5 mM", "setting": "[2]", "value": 0.742, "unit": "h"}, {"measurement": "dose dependence of systemic exposure", "setting": "[3]; 1, 3 and 10 mg/kg dose levels", "value": "dose proportional increase of systemic exposure"}, {"measurement": "sex difference of systemic exposure", "setting": "[3]; Day 1 and Day 15", "value": "Female rats showed higher systemic exposure than male rats"}, {"measurement": "AUC(0-inf)", "setting": "[3]; [4]", "value": 443, "unit": "ng·h/mL"}, {"measurement": "Cmax", "setting": "[3]; [4]", "value": 45, "unit": "ng/mL"}, {"measurement": "Tmax", "setting": "[3]; [4]", "value": 1.8, "unit": "h"}, {"measurement": "half-life", "setting": "[3]; [4]", "value": 4.6, "unit": "h"}, {"measurement": "AUC", "setting": "[3]; [4]", "value": 428, "unit": "ng·h/mL"}, {"measurement": "AUC(0-inf)", "setting": "[3]; [5]", "value": 436, "unit": "ng·h/mL"}, {"measurement": "Cmax", "setting": "[3]; [5]", "value": 41, "unit": "ng/mL"}, {"measurement": "Tmax", "setting": "[3]; [5]", "value": 1.4, "unit": "h"}, {"measurement": "half-life", "setting": "[3]; [5]", "value": 5.4, "unit": "h"}, {"measurement": "AUC", "setting": "[3]; [5]", "value": 413, "unit": "ng·h/mL"}, {"measurement": "AUC(0-inf)", "setting": "[3]; [6]", "value": 1160, "unit": "ng·h/mL"}, {"measurement": "Cmax", "setting": "[3]; [6]", "value": 139, "unit": "ng/mL"}, {"measurement": "Tmax", "setting": "[3]; [6]", "value": 1.8, "unit": "h"}, {"measurement": "half-life", "setting": "[3]; [6]", "value": 3.7, "unit": "h"}, {"measurement": "AUC", "setting": "[3]; [6]", "value": 1000, "unit": "ng·h/mL"}, {"measurement": "AUC(0-inf)", "setting": "[3]; [7]", "value": 1260, "unit": "ng·h/mL"}, {"measurement": "Cmax", "setting": "[3]; [7]", "value": 129, "unit": "ng/mL"}, {"measurement": "Tmax", "setting": "[3]; [7]", "value": 2.6, "unit": "h"}, {"measurement": "half-life", "setting": "[3]; [7]", "value": 4.8, "unit": "h"}, {"measurement": "AUC", "setting": "[3]; [7]", "value": 1210, "unit": "ng·h/mL"}, {"measurement": "AUC(0-inf)", "setting": "[3]; [8]", "value": 4540, "unit": "ng·h/mL"}, {"measurement": "Cmax", "setting": "[3]; [8]", "value": 389, "unit": "ng/mL"}, {"measurement": "Tmax", "setting": "[3]; [8]", "value": 2, "unit": "h"}, {"measurement": "half-life", "setting": "[3]; [8]", "value": 5.4, "unit": "h"}, {"measurement": "AUC", "setting": "[3]; [8]", "value": 4280, "unit": "ng·h/mL"}, {"measurement": "AUC(0-inf)", "setting": "[3]; [9]", "value": 4210, "unit": "ng·h/mL"}, {"measurement": "Cmax", "setting": "[3]; [9]", "value": 366, "unit": "ng/mL"}, {"measurement": "Tmax", "setting": "[3]; [9]", "value": 1.4, "unit": "h"}, {"measurement": "half-life", "setting": "[3]; [9]", "value": 5.6, "unit": "h"}, {"measurement": "AUC", "setting": "[3]; [9]", "value": 3960, "unit": "ng·h/mL"}, {"measurement": "AUC(0-inf)", "setting": "[3]; [10]", "value": 297, "unit": "ng·h/mL"}, {"measurement": "Cmax", "setting": "[3]; [10]", "value": 52, "unit": "ng/mL"}, {"measurement": "Tmax", "setting": "[3]; [10]", "value": 1.3, "unit": "h"}, {"measurement": "half-life", "setting": "[3]; [10]", "value": 4.6, "unit": "h"}, {"measurement": "AUC", "setting": "[3]; [10]", "value": 288, "unit": "ng·h/mL"}, {"measurement": "AUC(0-inf)", "setting": "[3]; [11]", "value": 1110, "unit": "ng·h/mL"}, {"measurement": "Cmax", "setting": "[3]; [11]", "value": 14, "unit": "ng/mL"}, {"measurement": "Tmax", "setting": "[3]; [11]", "value": 1.2, "unit": "h"}, {"measurement": "half-life", "setting": "[3]; [11]", "value": 5.2, "unit": "h"}, {"measurement": "AUC", "setting": "[3]; [11]", "value": 104, "unit": "ng·h/mL"}, {"measurement": "AUC(0-inf)", "setting": "[3]; [12]", "value": 893, "unit": "ng·h/mL"}, {"measurement": "Cmax", "setting": "[3]; [12]", "value": 133, "unit": "ng/mL"}, {"measurement": "Tmax", "setting": "[3]; [12]", "value": 1.2, "unit": "h"}, {"measurement": "half-life", "setting": "[3]; [12]", "value": 4.1, "unit": "h"}, {"measurement": "AUC", "setting": "[3]; [12]", "value": 876, "unit": "ng·h/mL"}, {"measurement": "AUC(0-inf)", "setting": "[3]; [13]", "value": 341, "unit": "ng·h/mL"}, {"measurement": "Cmax", "setting": "[3]; [13]", "value": 51, "unit": "ng/mL"}, {"measurement": "Tmax", "setting": "[3]; [13]", "value": 1.2, "unit": "h"}, {"measurement": "half-life", "setting": "[3]; [13]", "value": 4.6, "unit": "h"}, {"measurement": "AUC", "setting": "[3]; [13]", "value": 318, "unit": "ng·h/mL"}, {"measurement": "AUC(0-inf)", "setting": "[3]; [14]", "value": 2670, "unit": "ng·h/mL"}, {"measurement": "Cmax", "setting": "[3]; [14]", "value": 345, "unit": "ng/mL"}, {"measurement": "Tmax", "setting": "[3]; [14]", "value": 1.5, "unit": "h"}, {"measurement": "half-life", "setting": "[3]; [14]", "value": 3.9, "unit": "h"}, {"measurement": "AUC", "setting": "[3]; [14]", "value": 2620, "unit": "ng·h/mL"}, {"measurement": "AUC(0-inf)", "setting": "[3]; [15]", "value": 1300, "unit": "ng·h/mL"}, {"measurement": "Cmax", "setting": "[3]; [15]", "value": 176, "unit": "ng/mL"}, {"measurement": "Tmax", "setting": "[3]; [15]", "value": 1.2, "unit": "h"}, {"measurement": "half-life", "setting": "[3]; [15]", "value": 3.5, "unit": "h"}, {"measurement": "AUC", "setting": "[3]; [15]", "value": 1290, "unit": "ng·h/mL"}]}]}
